According to US11666555B2, “RelA inhibitors for biofilm disruption” (DREXEL UNIVERSITY, priority 2017, dated 2023):

What was measured:
Type in all cases: cell-based, Escherichia coli
[1] = tested on: E. coli C; assay: Bacterial growth curves in liquid culture (OD630); conditions: for effect on bacterial growth (growth curves): liquid culture, 30, 20, 10 and 5 μg/mL, OD630, 18 h, FIG. 2
Procedure: The bacterial strain of Escherichia coli strain C was used as the model organism for initial screening. A Luria-Bertani (LB-Miller) medium was used as the full medium. Once the biofilms were grown, compounds S3-[…] and S3-G1B were tested for their ability to degrade and inhibit biofilm growth. […] This is likely due to the fact that the stringent response and RelA are not active when the cells are initially grown. Bacterial Growth-The effect of different compounds on bacterial growth was tested by adding compounds at specific concentrations to the bacterial culture (100× diluted overnight culture approx. 10^9 cells) in fresh LB medium. Two hundred microliters were aliquoted into a 96 well plate and placed into Biotek HT plate reader for 18 h at 37° C. Plates were shaken and the optical density (OD630) was measured every 15 min. Antibiotic Susceptibility Test-The antibiotic susceptibility was tested. For the liquid cultures, the minimum inhibitory concentrations (MICs) of the antimicrobial drugs were determined using 96 well plates and the broth dilution method. Suspensions were then incubated at 37° C. for 18 hours in the Biotek HT plate reader (see bacterial growth). For biofilm, the Biofilm Destruction Test discussed below was used with different antibiotic concentrations and the cell density was measured after 18 h. Bacterial concentration was calculated through optical density (OD630), and the lowest concentration causing 80% growth inhibition relative to the growth of the control was deemed to be the MIC. In order to test the effect of compounds on bacterial growth, liquid culture experiments were performed. The S3-[…] compound (hereinafter “compound A”) and S3-G1B compound (hereinafter “compound B”) were applied to the bacterial cultures at the concentrations of 30, 20, 10 and 5 μg/mL. The differences in bacterial growth curves in liquid cultures fortified with the test compounds were measured. The Escherichia coli strain C is sensitive to all types of antibiotics. To test the MIC of ampicillin, a standard growth curve experiment was run with different concentrations of antibiotics. […] Inoculum at 1000× dilution of overnight culture.

[2] = tested on: E. coli C cells in biofilm; assay: Antibiotic susceptibility of cells in biofilm (cell density after 18 h treatment); conditions: 18 h treatment of 2-day biofilm
Procedure: Antibiotic Susceptibility Test—The antibiotic susceptibility was tested. For the liquid cultures, the minimum inhibitory concentrations (MICs) of the antimicrobial drugs were determined using 96 well plates and the broth dilution method. Suspensions were then incubated at 37° C. for 18 hours in the Biotek HT plate reader (see bacterial growth). For biofilm, the Biofilm Destruction Test discussed below was used with different antibiotic concentrations and the cell density was measured after 18 h. Bacterial concentration was calculated through optical density (OD630), and the lowest concentration causing 80% growth inhibition relative to the growth of the control was deemed to be the MIC. Biofilm Destruction Test—The biofilm destruction was determined. Biofilms were grown for 24 or 48 h as described above. After that time planktonic cells were removed, and biofilms were washed twice with 250 μL of sterile phosphate buffered saline (PBS) solution. Two hundred microliters of fresh LB medium with specific concentration of the tested compounds were dispensed into wells. After 18 h incubation at 37° C., the amount of biofilm was measured by CV staining as described above. As cells in the biofilm tend to be more resistant to antibiotics, similar ampicillin concentration was tested to check the effect of 18 h antibiotic treatment on 2-day biofilm growth. […] At 40 μg/mL, a decrease in cell growth was observed of 15%. Starting from 50 μg/mL the cell density was reduced from 53% to 5% (at 90 μg/mL) of the untreated control.

[3] = tested on: E. coli C biofilm; assay: Biofilm Destruction Test (biofilm persistence, crystal violet); conditions: for increase in biofilm persistence: 2 days old biofilm, 18 h, FIG. 7; for effect on biofilm persistence / survival: two days biofilms, FIG. 6
Procedure: Biofilm Destruction Test—The biofilm destruction was determined. Biofilms were grown for 24 or 48 h as described above. After that time planktonic cells were removed, and biofilms were washed twice with 250 μL of sterile phosphate buffered saline (PBS) solution. Two hundred microliters of fresh LB medium with specific concentration of the tested compounds were dispensed into wells. After 18 h incubation at 37° C., the amount of biofilm was measured by CV staining as described above.
The effect of small molecules on biofilm persistence was tested. Two days biofilms were treated with compounds A and B as well as IDR-1018 and serine hydroxamate.
As described above, antibiotics affect bacterial cell survival in biofilms. Thus, the effect of antibiotic on biofilm persistence was tested. Ampicillin was applied on 2 days old biofilm and the amount of biofilm was analyzed after 18 h.

[4] = tested on: E. coli C biofilm formation; assay: Biofilm Inhibition Test (crystal violet, OD570/OD600); conditions: for effect on biofilm formation (crystal violet): 20 μg/mL
Procedure: Biofilm Inhibition Test—The biofilm inhibition was analyzed. For biofilm formation on a polystyrene surface, flat-bottom 96-well microtiter plates (Corning Inc.) were used. The effect of different compounds on biofilm formation was tested by adding compounds at specific concentrations to the bacterial culture (100× diluted overnight culture approx. 10^9 cells) in fresh LB medium. Two hundred microliters were aliquoted into 96 well plate and placed for 24 or 48 h into 37° C. incubator. Cell density was measured (OD600) using a Multiscan Go plate reader (ThermoFisher), and 30 μL of Gram crystal violet (Remel-3 g CV, 50 mL isopropanol, 50 mL ethanol and 900 mL of purified water) was applied for staining for 1 h. Plates were washed with water and air dried, and crystal violet was solubilized with an ethanol-acetone (4:1) solution. The OD570 was determined from this solution, and the biofilm amount was calculated as the ratio of OD570 to OD600. In order to check the effect of small molecules on biofilm formation, a biofilm inhibition experiment was designed. Compounds A and B were tested at concentration 20 μg/mL. The Innate defense regulator peptide-1018 (IDR-1018) (10 μg/mL) and serine hydroxamate (1 μg/mL) were also included.

[5] = tested on: E. Coli biofilms; assay: Synergistic effect of compounds combined with ampicillin on biofilm; conditions: in conjunction with ampicillin, FIG. 8
Procedure: The synergistic effect of compounds combined with antibiotics was tested. Biofilms were grown for 24, 48 or 72 h as described above. After that time planktonic cells were removed, and biofilms were washed twice with 250 μL of sterile phosphate buffered saline (PBS) solution. Two hundred microliters of fresh LB medium with specific concentration of the tested compounds and Ampicillin were dispensed into wells. After 18 h incubation at 37° C., the amount of biofilm was measured by CV staining as described above. For alamarBlue viability test, 4 μL of alamarBlue (Invitrogen) was added and plates were incubated in the Biotek HT plate reader at 37° C. for 4 h. Cell viability was measured as fluorescence at 530/590 nm (excitation/emission) versus compound concentration or initial cell density.
FIG. 8 highlights some of the data collected. […] As a positive control in these experiments IDR-1018 was utilized. IDR-1018 is a non-druggable antibiofilm peptide. IDR 1018 is a known biofilm disruptor that directly acts and degrades (p)ppGpp in cells (de la Fuente-Núñez 2014).

Compound | effect on biofilm persistence / survival [3] | effect on bacterial growth (growth curves) [1] | effect on the initial growth of biofilms [4] | effect on biofilm formation (crystal violet) ([4]; FIG. 5B) | biofilm concentration compared to biofilms treated with just antibiotics [5] | biofilm degradation compared with positive control IDR-1018 [5] | other results
CC1(C)S[C@@H]2[C@H](NC(=O)[C@H](N)c3ccccc3)C(=O)N2[C@H]1C(=O)O [ampicillin] | – | – | – | – | – | – | effect on planktonic growth curve ([1]; low ampicillin concentrations, FIG. 3): bacteriostatic effect with a prolonged lag phase; decrease in cell growth ([2]; 40 μg/mL): 15%; cell density, % of the untreated control ([2]; 50 μg/mL): 53%; cell density, % of the untreated control ([2]; 90 μg/mL): 5%; increase in biofilm persistence ([3]; Amp 10 (10 μg/mL)): 1.7 fold; increase in biofilm persistence ([3]; Amp 70 (70 μg/mL)): 5.9 fold
IDR-1018 [reference compound] | smaller effect on biofilm destruction than on biofilm inhibition | – | – | – | – | – | planktonic growth lower than the untreated control ([4]; 10 μg/mL, FIG. 5A): 63%; biofilm lower than the untreated control ([4]; 10 μg/mL, FIG. 5B): 45%
CCCNc1ncc(-c2cc(-c3cc(C(=O)O)[nH]n3)nc(N)c2C#N)cn1 [Compound S3-G1B] | no significant effect | Neither compound showed any effect | did not show any effect | slight increase | decreasing the biofilm concentration significantly | outperform IDR-1018 | effect on bacterial growth (growth curves) ([1]; listed as B): no effect
O=C(N[C@H](C(=O)O)c1ccc(Cl)cc1)c1cc(-c2ccc(O)cc2)n[nH]1 [Compound S3-G1A, (4-chlorophenyl)([(3-(4-hydroxyphenyl)-1H-pyrazol-5-yl]carbonyl)amino)acetic acid] | no significant effect | Neither compound showed any effect | did not show any effect | slight increase | decreasing the biofilm concentration significantly | outperform IDR-1018 | effect on bacterial growth (growth curves) ([1]; listed as A): no effect
NC(CO)C(=O)NO (stereo not drawn) [Serine hydroxamate, serine hydroxamate, reference compound] | – | – | – | – | – | – | effect in biofilm inhibition experiment ([4]; 1 μg/mL, 24 h experiment): did not show any effect
